From publication PMC10439028, “SGLT5 is the renal transporter for 1,5-anhydroglucitol, a major player in two rare forms of neutropenia” (Cellular and Molecular Life Sciences: CMLS, 2023) come the findings set out here.

The target of the assay is T1, mouse SGLT4 (Mus musculus, UniProt Q8VDT1).
T1 construct: expressed in transfected cells; host or cells: HEK293T
T1 sequence (Q8VDT1 1-685): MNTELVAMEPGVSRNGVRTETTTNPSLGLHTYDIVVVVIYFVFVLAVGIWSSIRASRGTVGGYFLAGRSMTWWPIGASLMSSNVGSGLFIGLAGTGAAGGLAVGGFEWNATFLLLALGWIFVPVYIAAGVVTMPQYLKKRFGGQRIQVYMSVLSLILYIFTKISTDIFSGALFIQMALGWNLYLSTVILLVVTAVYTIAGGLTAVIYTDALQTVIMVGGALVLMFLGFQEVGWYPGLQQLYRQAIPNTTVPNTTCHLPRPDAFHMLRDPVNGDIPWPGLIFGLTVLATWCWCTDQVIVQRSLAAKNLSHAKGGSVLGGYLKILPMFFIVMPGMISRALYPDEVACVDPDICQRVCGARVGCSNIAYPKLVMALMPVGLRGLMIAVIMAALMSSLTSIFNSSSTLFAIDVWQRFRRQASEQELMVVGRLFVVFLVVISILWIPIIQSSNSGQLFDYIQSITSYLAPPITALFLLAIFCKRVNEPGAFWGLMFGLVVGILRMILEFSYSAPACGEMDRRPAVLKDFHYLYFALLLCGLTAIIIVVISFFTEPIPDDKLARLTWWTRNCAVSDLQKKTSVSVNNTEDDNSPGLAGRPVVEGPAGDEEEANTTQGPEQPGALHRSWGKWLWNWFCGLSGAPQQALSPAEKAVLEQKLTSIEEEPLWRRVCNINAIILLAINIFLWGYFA
Kind of assay: Inhibition of 50 µM mannose transport in HEK293T cells expressing mouse SGLT4. It counts as cell-based. As to conditions: 10 mM 1,5-AG. The protocol: Supplementary Fig. 4: Transport activities for 1,5-anhydroglucitol and mannose of recombinant mouse SGLT4 and SGLT5 isoforms measured in HEK293T cells.
Transport was measured in 24 well plates with 0.6x10^6 cells during 30 mins at 37°C in 5% CO2 in the presence of the indicated concentrations of 2-[1H+3H]-1,5-AG for both mSGLT4 (A) and mSGLT5 (B) and U-[12C+14C]-mannose (C) for mSGLT4. The saturation curves for the transport activities and the derived kinetic constants (Km and Vmax) are shown and indicate that mSGLT4 appears to be able to transport 1,5-anhydroglucitol but with a very low affinity (Km > 5 mM – panel A) compared to mannose (Km = 0.2 mM – panel C), while mSGLT5 transports efficiently 1,5-anhydroglucitol (Km = 0.5 mM – panel B). (D) 10 mM 1,5- […]
U-[12C+14C]-mannose) for both the human (hSGLT4) and the mouse (mSGLT4) isoforms of […]
(also on this page, place not known: Transport of (pmol/min/100 cells) Transport of (pmol/min/100 cells) 000 Transport of 1,5-AG (pmol/min/100 000 cells) 000 hSGLT4 mSGLT4 Mannose transport activity (% of the value at [12C+14C]-mannose) 50 µM mannose 1,5-AG)

`OC[C@H]1OC[C@H](O)[C@@H](O)[C@@H]1O` [1,5-AG, 1,5-anhydroglucitol]: the “inhibition of mouse SGLT4 transport activity” value is “barely inhibited”.
